Key:
[1] = molecular target: Peptide N-myristoyltransferase (Candida albicans); experiment: In vitro inhibitory activity against Candida albicans Nmt (CaNmt) using substrate peptide GLTISKLFR-R-NH2 (0.5 uM) and myristoyl-CoA (0.5 uM)
[2] = molecular target: Peptide N-myristoyltransferase (Aspergillus fumigatus); experiment: In vitro inhibitory activity against Aspergillus fumigatus Nmt (AfNmt) using substrate peptide GLTISKLFR-R-NH2 (0.5 uM) and myristoyl-CoA (0.5 uM)
[3] = molecular target: T1, Peptide N-myristoyltransferase (Homo sapiens, UniProt P30419+O60551); experiment: In vitro inhibitory activity against human Nmt (HsNmt) using 0.5 uM peptide GNAASAR-R-NH2 and 0.5 uM myristoyl-CoA; assay type: protein assay
T1 sequence (P30419 whole entry): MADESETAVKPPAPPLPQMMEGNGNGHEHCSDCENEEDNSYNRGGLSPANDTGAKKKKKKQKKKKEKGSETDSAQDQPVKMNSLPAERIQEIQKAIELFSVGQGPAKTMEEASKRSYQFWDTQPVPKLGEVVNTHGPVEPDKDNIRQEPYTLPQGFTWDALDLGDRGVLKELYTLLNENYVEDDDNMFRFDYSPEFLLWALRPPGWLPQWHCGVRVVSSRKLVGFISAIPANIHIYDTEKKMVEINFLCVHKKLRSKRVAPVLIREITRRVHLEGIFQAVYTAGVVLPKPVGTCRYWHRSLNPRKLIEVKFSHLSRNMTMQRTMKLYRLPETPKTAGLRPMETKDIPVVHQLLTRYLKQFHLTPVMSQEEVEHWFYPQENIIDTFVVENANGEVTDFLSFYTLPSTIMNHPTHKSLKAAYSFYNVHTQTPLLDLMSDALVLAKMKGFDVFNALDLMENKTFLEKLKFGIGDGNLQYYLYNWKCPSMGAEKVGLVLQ
T1 sequence (O60551 whole entry): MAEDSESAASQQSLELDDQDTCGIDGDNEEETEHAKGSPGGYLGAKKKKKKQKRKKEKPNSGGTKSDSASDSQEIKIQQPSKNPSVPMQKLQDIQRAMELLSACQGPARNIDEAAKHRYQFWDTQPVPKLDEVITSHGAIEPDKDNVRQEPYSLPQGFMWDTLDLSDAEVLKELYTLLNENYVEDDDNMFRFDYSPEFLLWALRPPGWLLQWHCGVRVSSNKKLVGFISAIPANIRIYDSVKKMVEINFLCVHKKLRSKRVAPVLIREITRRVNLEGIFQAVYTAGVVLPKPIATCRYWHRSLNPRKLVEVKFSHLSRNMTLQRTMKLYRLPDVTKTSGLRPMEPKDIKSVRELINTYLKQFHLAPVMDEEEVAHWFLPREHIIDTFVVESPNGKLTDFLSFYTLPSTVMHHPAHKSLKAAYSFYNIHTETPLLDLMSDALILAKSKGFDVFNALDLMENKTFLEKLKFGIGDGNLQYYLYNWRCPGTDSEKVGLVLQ

[4] = tested on: Candida albicans; experiment: In vitro antifungal activity against Candida albicans (CY1002) in YNBPB medium; assay type: functional, organism-based
[5] = Half life period was evaluated in rat plasma; assay type: ADME, organism-based
[6] = Pharmacokinetic property when administered intravenously in rat at 2 mg/kg; assay type: ADME, organism-based; set-up: dose 2 mg/kg, route intravenous; details: in vivo, iv
[7] = tested on: Candida albicans; experiment: In vitro antifungal activity against Candida albicans (CY1002) in 80% calf serum; assay type: functional, organism-based
[8] = species on record: Rattus norvegicus; experiment: Antifungal activity determined in rat infected with Candida albicans CY1002.; assay type: functional
[9] = molecular target: Peptide N-myristoyltransferase (Aspergillus fumigatus); experiment: In vitro inhibitory activity against aspergillus fumigatus Nmt (AfNmt) using substrate peptide GLTISKLFR-R-NH2 (0.5 uM) and myristoyl-CoA (0.5 uM)
[10] = tested on: Candida albicans; experiment: In vitro antifungal activity against Candida albicans (CY1002) in YNBPB medium in rat; assay type: functional, organism-based
[11] = molecular target: Peptide N-myristoyltransferase (Candida albicans); experiment: In vitro inhibitory activity against candida albicans Nmt (CaNmt) using substrate peptide GLTISKLFR-R-NH2 (0.5 uM) and myristoyl-CoA (0.5 uM)
[12] = species on record: Rattus norvegicus; experiment: Antifungal activity determined in rat infected with Candida albicans CY1002; assay type: functional
[13] = molecular target: Peptide N-myristoyltransferase (Candida albicans); experiment: Inhibitory activity against Candida albicans Nmt (CaNmt) using substrate peptide GLTISKLFR-R-NH2 (0.5 uM) and myristoyl-CoA (0.5 uM)
[14] = tested on: Mus musculus; experiment: In vivo efficacy expressed as effective dose against murine systematic candidiasis model; assay type: functional
[15] = molecular target: Peptide N-myristoyltransferase (Candida albicans); experiment: In vitro inhibitory activity against Candida albicans Nmt (CaNmt) using substrate peptide GLTISKLFR-R-NH2 (0.5 uM) and myristoyl-CoA (0.5 uM); remark: listed apart in the source

## Cc1nc(C(=O)c2oc3cccc(OCCCNCc4cccnc4)c3c2C)sc1C
[1]
  IC50: 0.71 nM
[2]
  IC50: 4.3 µM
[3]
  IC50: 83 µM
[4]
  IC50: 39 nM
[5]
  half-life: 39 min
[6]
  AUC: 320 ng·h/mL
[7]
  IC50: 190 nM

## Cc1ccc(C(=O)c2oc3cccc(OCCCNCc4cccnc4)c3c2C)nc1
[8]
  ED50: 15 mg/kg
[3]
  IC50: > 480 µM
[9]
  IC50: 4.1 µM
[10]
  IC50: 36 nM
[5]
  half-life: 34.8 min
[11]
  IC50: 390 pM
[6]
  AUC: 440 ng·h/mL
[7]
  IC50: 82 nM

## C=CCn1c(C(=O)c2oc3cccc(OCCCNCc4cccnc4)c3c2C)nc2ccccc21
[1]
  IC50: 0.58 nM
[2]
  IC50: 5.1 µM
[3]
  IC50: 85 µM
[4]
  IC50: 48 nM
[12]
  ED50: 8.7 mg/kg
[5]
  half-life: 48 min
[6]
  AUC: 570 ng·h/mL
[7]
  IC50: 420 nM

## Cc1c(C(=O)c2ccccc2)oc2cccc(OCCCNCc3cccnc3)c12
[13]
  IC50: 1.2 µM

## Cc1c(C(O)c2ccccn2)oc2cccc(OCCCNCc3cccnc3)c12 (stereo not given)
[13]
  IC50: 0.047 µM

## Cc1c(C(=O)c2nc3ccccc3n2C)oc2cccc(OCCCNCc3cccnc3)c12
[1]
  IC50: 0.4 nM
[2]
  IC50: 13 µM
[3]
  IC50: 94 µM
[4]
  IC50: 35 nM
[5]
  half-life: 35.4 min
[6]
  AUC: 450 ng·h/mL
[7]
  IC50: 1200 nM

## Cc1c(C(=O)c2nccs2)oc2cccc(OCCCNCc3cccnc3)c12
[1]
  IC50: 91 nM
[2]
  IC50: 63 µM
[3]
  IC50: 25 µM
[4]
  IC50: 540 nM
[7]
  IC50: 8300 nM

## Cc1c(COc2ccc(F)c(F)c2F)oc2cccc(OCCCNCc3cccnc3)c12
[14]
  ED50: 7.1 mg/kg
[5]
  half-life: 120 min

## Cc1c(C(=O)c2cccnc2)oc2cccc(OCCCNCc3cccnc3)c12
[13]
  IC50: 0.062 µM

## Cc1c(C(=O)c2ncccc2C(F)(F)F)oc2cccc(OCCCNCc3cccnc3)c12
[1]
  IC50: 43 nM
[2]
  IC50: 11 µM
[3]
  IC50: > 430 µM
[4]
  IC50: 340 nM
[5]
  half-life: 33.6 min
[6]
  AUC: 590 ng·h/mL
[7]
  IC50: 5100 nM

## Cc1c(Cc2ccccn2)oc2cccc(OCCCNCc3cccnc3)c12
[13]
  IC50: 1.9 µM

## Cc1c(C(=O)c2ccccn2)oc2cccc(OCCCNCc3cccnc3)c12
[15]
  IC50: 3.5 nM
[2]
  IC50: 42 µM
[3]
  IC50: 340 µM
[4]
  IC50: 65 nM
[5]
  half-life: 32.4 min
[6]
  AUC: 410 ng·h/mL
[7]
  IC50: 470 nM

## Cc1c(C(=O)c2nccn2C)oc2cccc(OCCCNCc3cccnc3)c12
[4]
  IC50: 120 nM
[5]
  half-life: 27 min
[6]
  AUC: 530 ng·h/mL
[7]
  IC50: 3000 nM

## Cc1c(C(=O)c2ccco2)oc2cccc(OCCCNCc3cccnc3)c12
[1]
  IC50: 1400 nM
[2]
  IC50: 150 µM
[3]
  IC50: 280 µM
[4]
  IC50: 4600 nM
[7]
  IC50: 25000 nM

## Cc1csc(C(=O)c2oc3cccc(OCCCNCc4cccnc4)c3c2C)n1
[1]
  IC50: 2 nM
[2]
  IC50: 18 µM
[3]
  IC50: 130 µM
[4]
  IC50: 140 nM
[5]
  half-life: 20.4 min
[6]
  AUC: 470 ng·h/mL
[7]
  IC50: 740 nM

## Cc1c(C(=O)c2nc3ccccc3n2C(C)C)oc2cccc(OCCCNCc3cccnc3)c12
[1]
  IC50: 1.3 nM
[2]
  IC50: 0.48 µM
[3]
  IC50: 99 µM
[4]
  IC50: 19 nM
[5]
  half-life: 51.6 min
[6]
  AUC: 810 ng·h/mL
[7]
  IC50: 2700 nM

## OC(Cn1cncn1)(Cn1cncn1)c1ccc(F)cc1F [FLUCONAZOLE]
[5]
  half-life: 240 min
[6]
  AUC: 19600 ng·h/mL

From ChEMBL document CHEMBL1136367, “Design and synthesis of novel benzofurans as a new class of antifungal agents targeting fungal N-myristoyltransferase. Part 3” (Bioorg Med Chem Lett, 2003)
